BindingDB's records for doi:10.1021/jm060193m (Universit&#224, 2006)

What was measured:
Integrase [1] = target: T1, Integrase (Human immunodeficiency virus 1, UniProt Q7ZJM1); test: Inhibition of HIV1 integrase strand transfer activity
Integrase [2] = target: T1, Integrase; test: Inhibition of HIV1 integrase 3' processing activity

T1 sequence (Q7ZJM1 whole entry): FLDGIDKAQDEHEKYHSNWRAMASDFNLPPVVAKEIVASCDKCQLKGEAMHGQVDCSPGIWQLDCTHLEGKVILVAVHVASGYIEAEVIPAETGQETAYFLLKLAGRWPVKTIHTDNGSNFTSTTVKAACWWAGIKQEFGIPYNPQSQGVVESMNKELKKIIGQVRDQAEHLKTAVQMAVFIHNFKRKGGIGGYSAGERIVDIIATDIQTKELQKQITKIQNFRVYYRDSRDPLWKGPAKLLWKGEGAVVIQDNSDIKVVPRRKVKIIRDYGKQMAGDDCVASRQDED

COC(=O)C(=O)CC(=O)c1ccccc1
IC50 (Integrase [1]): > 333 µM
IC50 (Integrase [2]): > 333 µM
